Assay [1] deals with T1, Carbonic anhydrase (Dicentrarchus labrax, UniProt Q2PCB5).
T1 sequence (Q2PCB5 whole entry): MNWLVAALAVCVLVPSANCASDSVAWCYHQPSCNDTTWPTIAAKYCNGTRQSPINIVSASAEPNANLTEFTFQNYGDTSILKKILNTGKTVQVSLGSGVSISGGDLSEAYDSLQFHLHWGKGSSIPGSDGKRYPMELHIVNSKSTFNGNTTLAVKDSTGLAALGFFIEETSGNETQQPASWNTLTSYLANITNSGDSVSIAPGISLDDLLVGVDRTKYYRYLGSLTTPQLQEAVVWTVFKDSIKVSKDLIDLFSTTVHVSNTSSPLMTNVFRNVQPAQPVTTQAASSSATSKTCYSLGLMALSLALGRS
In words: Inhibition of Dicentrarchus labrax CA using 4-nitrophenylacetate substrate by esterase assay.

Assay [2] concerns the target Carbonic anhydrase 6 (Homo sapiens, UniProt P23280). In words: Inhibition of human CA6 using 4-nitrophenylacetate substrate by esterase assay.
The target of assay [3] is Carbonic anhydrase 2 (Homo sapiens, UniProt P00918). In words: Inhibition of human CA2 using 4-nitrophenylacetate substrate by esterase assay.
For assay [4], the target named is Carbonic anhydrase 1 (Homo sapiens, UniProt P00915). In words: Inhibition of human CA1 using 4-nitrophenylacetate substrate by esterase assay.
Sequence of Carbonic anhydrase 1 (P00915 whole entry): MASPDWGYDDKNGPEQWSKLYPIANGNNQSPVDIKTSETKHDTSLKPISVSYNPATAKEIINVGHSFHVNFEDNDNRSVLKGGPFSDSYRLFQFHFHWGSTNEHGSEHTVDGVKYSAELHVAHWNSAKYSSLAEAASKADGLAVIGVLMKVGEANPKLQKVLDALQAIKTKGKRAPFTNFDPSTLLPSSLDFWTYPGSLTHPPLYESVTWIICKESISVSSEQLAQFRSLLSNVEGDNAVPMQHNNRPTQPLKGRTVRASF

A word on the Ki: it is a measure of affinity in units of concentration, obtained from inhibition or displacement.

Sequence of Carbonic anhydrase 6 (P23280 whole entry): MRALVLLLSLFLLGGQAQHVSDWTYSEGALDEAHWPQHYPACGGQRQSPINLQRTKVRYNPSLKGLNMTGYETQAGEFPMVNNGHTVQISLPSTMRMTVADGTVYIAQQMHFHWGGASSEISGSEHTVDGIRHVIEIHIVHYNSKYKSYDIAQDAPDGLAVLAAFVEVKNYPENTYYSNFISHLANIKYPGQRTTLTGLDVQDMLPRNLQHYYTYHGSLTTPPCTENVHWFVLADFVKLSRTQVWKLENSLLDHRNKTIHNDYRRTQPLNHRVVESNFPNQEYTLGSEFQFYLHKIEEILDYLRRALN

As for `O=C(O)c1cc(O)cc(O)c1` [3,5-DIHYDROXYBENZOIC ACID], the Ki in assay [1] came out at 2.13 µM. Consider `O=C(O)c1cccc(O)c1` [3-HYDROXYBENZOIC ACID], for which the Ki in assay [2] was 3.17 µM; in assay [1], 98.3 µM. In assay [1], `Oc1ccccc1O` [CATECHOL] showed a Ki of 14.8 µM. `O=C(O)c1cc(O)c(O)c(O)c1` [GALLIC ACID] registered a Ki in assay [1] of 4.13 µM. In assay [1], `Oc1ccc(O)cc1` [HYDROQUINONE] had a Ki of 5.93 µM.

In assay [1], `O=C(O)c1ccc(O)cc1` [PARABEN] had an inhibitory constant (Ki) of 8.46 µM. The same measure, in the same setting: as for `Oc1ccccc1` [PHENOL], the figure is 13.7 µM. Regarding `O=C(O)c1ccc(O)c(O)c1` [PROTOCATECHUIC ACID], the Ki in assay [2] came to 4.72 µM; in assay [1], 3.21 µM. As for `Oc1cccc(O)c1O` [PYROGALLOL], the Ki in assay [3] is 0.54 µM; in assay [2], 0.52 µM; in assay [1], 4.39 µM; in assay [4] it was 7.41 µM.

`Oc1cccc(O)c1` [RESORCINOL] yielded a Ki in assay [1] of 6.42 µM. Molecule `O=C(O)c1ccccc1O` [SALICYLIC ACID] returned a Ki in assay [1] of 324 µM. Consider `O=C(OC[C@H]1O[C@@H](OC(=O)c2cc(O)c(O)c(OC(=O)c3cc(O)c(O)c(O)c3)c2)[C@H](OC(=O)c2cc(O)c(O)c(OC(=O)c3cc(O)c(O)c(O)c3)c2)[C@@H](OC(=O)c2cc(O)c(O)c(OC(=O)c3cc(O)c(O)c(O)c3)c2)[C@@H]1OC(=O)c1cc(O)c(O)c(OC(=O)c2cc(O)c(O)c(O)c2)c1)c1cc(O)c(O)c(OC(=O)c2cc(O)c(O)c(O)c2)c1` [TANNIC ACID], for which the Ki in assay [3] was found to be 32.8 µM; in assay [2], 17.8 µM; in assay [1], 9.41 µM; in assay [4] it was 75.9 µM.

The values are drawn from ChEMBL document CHEMBL1799986, “In vitro inhibition of α-carbonic anhydrase isozymes by some phenolic compounds” (Bioorg Med Chem Lett, 2011).
